Experimental findings from US7671085B2, “Non-steroidal farnesoid X receptor modulators and methods for the use thereof” (The Salk Institute for Biological Studies, priority 2002, dated 2010) are described below.

Entries after “also recorded” stand apart in the source; their conditions may differ.

The first test has as its target T1, FXR (Homo sapiens, UniProt Q96RI1).
T1 construct: using a full length FXR on a natural response element; expressed in transfected cells
T1 sequence (Q96RI1 1-486): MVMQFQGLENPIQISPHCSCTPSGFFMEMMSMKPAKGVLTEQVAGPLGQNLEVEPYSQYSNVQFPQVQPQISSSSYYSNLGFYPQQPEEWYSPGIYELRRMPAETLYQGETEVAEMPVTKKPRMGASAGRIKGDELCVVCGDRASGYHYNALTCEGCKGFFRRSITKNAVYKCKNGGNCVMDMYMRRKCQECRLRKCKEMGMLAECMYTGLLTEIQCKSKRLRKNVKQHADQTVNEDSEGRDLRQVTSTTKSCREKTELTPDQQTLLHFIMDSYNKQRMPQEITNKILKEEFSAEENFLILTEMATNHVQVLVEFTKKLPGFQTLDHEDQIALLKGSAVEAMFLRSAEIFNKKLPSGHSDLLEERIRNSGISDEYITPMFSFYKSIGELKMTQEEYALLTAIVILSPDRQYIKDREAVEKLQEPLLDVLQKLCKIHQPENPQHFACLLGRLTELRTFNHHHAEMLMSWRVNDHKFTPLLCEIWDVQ
Briefly: cell-based FXR transcription assay, FXR responsive promoter linked to luciferase reporter. The conditions noted are these: cell-based FXR reporter assay; determined with Prism 3.0. The text has this: In addition to ensuring that only cell permeable compounds were selected for further optimization, this approach allows for the detection of FXR activation in a natural system (i.e., correct folding of the protein and in the presence of a complete compliment of co-activators and co-repressors).
The feasibility of creating high throughput screens (HTS) for ORs was explored using FXR as a candidate orphan receptor (OR) with a known activator, chenodeoxycholic acid (CDCA) as a ligand. The screen is based on the co-transfection of a full-length receptor with the reporter vector containing a natural hormone response element under a minimal eukaryotic promoter. […] Using this 384-well format, the high throughput screening (HTS) approach to FXR as a candidate OR was employed. […] A central question in the feasibility studies is whether this library is suitable for screening for nuclear receptor ligands. Samples of this library were first reformatted into a 384-well format and then subjected to the FXR cell-based assays described above and assessed for FXR-mediated transcriptional activity. Cells were exposed to approximately 10 μM of sample for 18 hrs prior to washing and luciferase analysis.
EC50 values were determined with Prism 3.0 software via the activity of the subject compound in the previously described cell based assay.
In general terms: In a reporter assay the amount or activity of a reporter protein is the signal.
For `COC(=O)/C=C/c1cccc(N(Cc2ccc3c(c2OC)OC(C)(C)C=C3)C(=O)C2CCCCC2)c1` [Compound 65], it took 3.58 nM to reach a half-maximal effect (EC50).

The compound `CCOC(=O)C=Cc1cccc(N(Cc2ccc(C=CC(=O)OC(C)(C)C)cc2)C(=O)C2CCCCC2)c1` [Compound 133] displayed a concentration giving a half-maximal response (EC50) of 256 nM.

Still in this test, the particulars now being: cell-based FXR reporter assay; footnote a not given.
As for `COC(=O)/C=C/c1cccc(N(Cc2ccc3c(c2OC)OC(C)(C)C=C3)C(=O)C2CCCCC2)c1` [Compound 65], the “RE^a” value turned out to be 0.40.

As for `COC(=O)C=Cc1cccc(N(Cc2ccc3c(c2OC)OC(C)(C)C=C3)C(=O)c2ccccc2)c1` [Compound 68], the “RE^a” value turned out to be 0.83.

As to `COC(=O)/C=C/c1cccc(N(Cc2ccc3c(c2OC)OC(C)(C)C2C3C2(Cl)Cl)C(=O)c2ccccc2)c1` (stereo not shown) [Compound 102], the “RE^a” value is given as 0.64.

Take `COC(=O)C=Cc1cccc(N(Cc2ccc(C=CC(=O)O)cc2)C(=O)C2CCCCC2)c1` [Compound 104]: the “RE^a” value stood at 0.08.

For the compound `COC(=O)/C=C/c1cccc(N(Cc2ccc(/C=C/C(=O)OC(C)(C)C)cc2)C(=O)C2CCCCC2)c1` [Compound 105], the “RE^a” value is on record as 2.12.

Consider `COC(=O)/C=C/c1cccc(N(Cc2ccccc2)C(=O)C2CCCCC2)c1` [Compound 110], for which the “RE^a” value is 0.09.

For `COC(=O)/C=C/c1cccc(N(Cc2ccc(Br)cc2)C(=O)C2CCCCC2)c1` [Compound 112], the “RE^a” value was found to be 0.28.

For the compound `COC(=O)C=Cc1cccc(N(Cc2cccc(Br)c2)C(=O)C2CCCCC2)c1` [Compound 113], the “RE^a” value amounted to 0.11.

With `COC(=O)C=Cc1cccc(N(Cc2ccccc2Br)C(=O)C2CCCCC2)c1` [Compound 114], the “RE^a” value is reported as 0.11.

For `COC(=O)/C=C/c1cccc(N(Cc2cccc(OC)c2)C(=O)C2CCCCC2)c1` [Compound 115], the “RE^a” value came to 0.11.

Turning to `COC(=O)/C=C/c1cccc(N(Cc2cccc(C(F)(F)F)c2)C(=O)C2CCCCC2)c1` [Compound 117], the “RE^a” value is reported as 0.12.

Consider `COC(=O)/C=C/c1cccc(N(Cc2cc(OC)cc(OC)c2)C(=O)C2CCCCC2)c1` [Compound 118], for which the “RE^a” value is 0.11.

As to `COC(=O)C=Cc1cccc(N(Cc2ccc(C=Cc3ccc(OC)cc3)cc2)C(=O)C2CCCCC2)c1` [Compound 122], the “RE^a” value amounted to 1.67.

Turning to `COC(=O)C=Cc1cccc(N(Cc2ccc(C=Cc3ccc(C(C)(C)C)cc3)cc2)C(=O)C2CCCCC2)c1` [Compound 123], the “RE^a” value was 0.29.

With `COC(=O)/C=C/c1cccc(N(Cc2ccc(-c3ccccc3)cc2)C(=O)C2CCCCC2)c1` [Compound 124], the “RE^a” value is given as 0.71.

For `COC(=O)/C=C/c1cccc(N(Cc2ccc(-c3ccc(SC)cc3)cc2)C(=O)C2CCCCC2)c1` [Compound 125], the “RE^a” value came to 1.74.

Regarding `COC(=O)/C=C/c1cccc(N(Cc2ccc(-c3cc(Cl)cc(Cl)c3)cc2)C(=O)C2CCCCC2)c1` [Compound 126], the “RE^a” value is 0.95.

As to `COC(=O)/C=C/c1cccc(N(Cc2ccc(-c3cccc(C(C)=O)c3)cc2)C(=O)C2CCCCC2)c1` [Compound 127], the “RE^a” value is on record as 1.30.

For `COC(=O)C=Cc1cccc(N(Cc2ccc(-c3ccc(C)s3)cc2)C(=O)C2CCCCC2)c1` [Compound 128], the “RE^a” value is 1.78.

Turning to `COC(=O)C=Cc1cccc(N(Cc2ccc(-c3ccc(C(C)=O)s3)cc2)C(=O)C2CCCCC2)c1` [Compound 129], the “RE^a” value worked out at 1.48.

With `COC(=O)/C=C/c1cccc(NC(=O)C2CCCCC2)c1` [Compound 132], the “RE^a” value was found to be 0.09.

As for `CCOC(=O)C=Cc1cccc(N(Cc2ccc(C=CC(=O)OC(C)(C)C)cc2)C(=O)C2CCCCC2)c1` [Compound 133], the “RE^a” value came to 2.07.

Staying with this test, now noted: cell-based reporter assay, SAR discussion.
Take `COC(=O)/C=C/c1cccc(N(Cc2ccc3c(c2OC)OC(C)(C)[C@@H](O)[C@H]3O)C(=O)c2ccccc2)c1` (relative stereo) [Compound 93]: the “FXR activation, in words” value is “did not improve the activity”.

For the compound `COc1c(CN(C(=O)C2CC2)c2ccccc2)ccc2c1OC(C)(C)C=C2` [Compound 26], the “FXR activation, in words” value is listed as “among the most active at this stage”.

For `COc1c(CN(C(=O)C2CCCCC2)c2ccccc2)ccc2c1OC(C)(C)C=C2` [Compound 27], the “FXR activation, in words” value is on record as “among the most active at this stage”.

With `COC(=O)/C=C/c1cccc(N(Cc2ccc3c(c2OC)OC(C)(C)C=C3)C(=O)C2CC2)c1` [Compound 29], the “FXR activation, in words” value is reported as “substantially better activator of FXR than compound 26; also recorded: capable of activating FXR to a significant extent”.

As for `CCOC(=O)/C=C/c1cccc(N(Cc2ccc3c(c2OC)OC(C)(C)C=C3)C(=O)C2CC2)c1` [Compound 30], the “FXR activation, in words” value was “inactive”.

Take `COC/C=C/c1cccc(N(Cc2ccc3c(c2OC)OC(C)(C)C=C3)C(=O)C2CC2)c1` [Compound 33]: the “FXR activation, in words” value is on record as “capable of activating FXR to a significant extent”.

With `COc1c(CN(C(=O)C2CC2)c2cccc(/C=C/C#N)c2)ccc2c1OC(C)(C)C=C2` [Compound 34], the “FXR activation, in words” value is “inactive”.

For the compound `CNC(=O)/C=C/c1cccc(N(Cc2ccc3c(c2OC)OC(C)(C)C=C3)C(=O)C2CC2)c1` [Compound 38], the “FXR activation, in words” value is “inactive”.

For `COC(=O)/C=C/c1ccc(N(Cc2ccc3c(c2OC)OC(C)(C)C=C3)C(=O)C2CC2)cc1` [Compound 53], the “FXR activation, in words” value is reported as “does not activate FXR”.

For the compound `COC(=O)/C=C/c1cccc(N(Cc2ccccc2)Cc2ccc3c(c2OC)OC(C)(C)C=C3)c1` [Compound 78], the “FXR activation, in words” value is “inactive”.

For the compound `COC(=O)/C=C/c1cccc(N(C)Cc2ccc3c(c2OC)OC(C)(C)C=C3)c1` [Compound 79], the “FXR activation, in words” value is “inactive”.

In the case of `COC(=O)/C=C/c1cccc(N(Cc2ccc3c(c2OC)OC(C)(C)C=C3)S(=O)(=O)c2ccc(C)cc2)c1` [Compound 82], the “FXR activation, in words” value was “inactive”.

Regarding `COC(=O)/C=C/c1cccc(N(Cc2ccc3c(c2OC)OC(C)(C)C=C3)C(=S)C2CC2)c1` [Compound 83], the “FXR activation, in words” value was “inactive”.

Consider `COC(=O)/C=C/c1cccc(N(Cc2ccc3c(c2OC)OC(C)(C)C=C3)C(=S)NCc2ccccc2)c1` [Compound 84], for which the “FXR activation, in words” value was “inactive”.

With `COC(=O)/C=C/c1cccc(N(Cc2ccc3c(c2OC)OC(C)(C)C=C3C(=O)O)C(=O)c2ccccc2)c1` [Compound 86], the “FXR activation, in words” value is reported as “did not improve the activity”.

`COC(=O)C=Cc1cccc(N(Cc2ccc3c(c2OC)OC(C)(C)C(O)C3O)C(=O)c2ccccc2)c1` (stereo not shown) [Compound 94]: the “FXR activation, in words” value is “did not improve the activity”.

`COC(=O)C=Cc1cccc(N(Cc2ccc3c(c2OC)OC(C)(C)C(O)C3Sc2ccccc2)C(=O)c2ccccc2)c1` (stereo not shown) [Compound 98]: the “FXR activation, in words” value was “did not improve the activity”.

With `COC(=O)C=Cc1cccc(N(Cc2ccc3c(c2OC)OC(C)(C)C(O)C3N2CCCCC2)C(=O)c2ccccc2)c1` (stereo not shown) [Compound 100], the “FXR activation, in words” value is given as “did not improve the activity”.

As to `COC(=O)/C=C/c1cccc(N(Cc2cccc(/C=C/C(=O)OC(C)(C)C)c2)C(=O)C2CCCCC2)c1` [Compound 107], the “FXR activation, in words” value is “only micromolar potency”.

For `COC(=O)/C=C/c1cccc(N(Cc2ccccc2/C=C/C(=O)OC(C)(C)C)C(=O)C2CCCCC2)c1` [Compound 109], the “FXR activation, in words” value is listed as “only micromolar potency”.

For `COC(=O)/C=C/c1cccc(N(Cc2ccc(-c3ccc(SC)cc3)cc2)C(=O)C2CCCCC2)c1` [Compound 125], the “FXR activation, in words” value was “excellent activity”.

For `CCOC(=O)C=Cc1cccc(N(Cc2ccc(C=CC(=O)OC(C)(C)C)cc2)C(=O)C2CCCCC2)c1` [Compound 133], the “FXR activation, in words” value is reported as “marked decline in potency”.

Broadly, the EC50 is the concentration at which the effect is half-maximal.
